Consider 1 substance from publication doi:10.1101/2025.03.26.645438v1 (bioRxiv, 2025).

For series [1], the system named is diet-induced obese (DIO) mice. In words: Weight loss in diet-induced obese. The format is in vivo, mouse. As to conditions: 10 nmol/kg.
For series [2], the system named is diabetic db/db mouse model. In words: Long-term glucose-lowering after multiple doses. The conditions noted are these: db/db mice, kidney injury marker after multiple administration 10 nmol/kg. The format is in vivo.
Series [3] in a line: Pharmacokinetics. The format is in vivo, rat. As to conditions: SD male rats, single dose 0.05 mg/kg, plasma, LC-MS/MS, WinNonlin, mean n=3.
The test system of series [4] is diabetic db/db mouse model. In words: Acute glucose-lowering after single dose in db/db mice. The format is in vivo.

For Semaglutide, the fat index entry in series [1] (multiple administrations) is reported as “reduced”. Also, the body weight reduction in series [1] (multiple administrations over 21 days, n=5) was determined as 21.54%. In series [2], the “serum creatinine (Scr)” value was “significantly reduced” and the urinary albumin levels entry is listed as “significantly reduced”. Also, in series [3], the “half-life (T1/2)” value was 8.17 h and the “mean residence time (MRT0-t), 0-[…]” value is 14.21 h. Further, in series [4] (single dose 10 nmol/kg), the “time up to which the decrease of non-fasting blood glucose persisted” value came to 24 h. In addition, the “lowest non-fasting blood glucose level” value in series [4] (single dose 10 nmol/kg subcutaneous, mean±SD, n=6, SD) was 15.57 ± 5.16 mmol/L. In series [4] (single dose 10 nmol/kg, non-fasting glucose 0-120 hours), the “acute glucose-lowering effect compared with model group” value is “comparable glucose-lowering effects”.
